The target in the assay is S. pneumoniae Topoisomerase IV ATPase (ParE) (Streptococcus pneumoniae serotype 4, UniProt Q59961). The assay is described as follows: S. pneumoniae Topoisomerase IV ATPase inhibition. The format is biochemical. To be noted: values marked * are an average of two or more data points, read-out: % Inh (13 μM) of S. pneumoniae Topoisomerase IV ATPase. The method in brief:
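S. pneumoniae ParE (1.25 nM) ATPase with 160 μM ATP and 5 μg/ml sheared DNA in pH 8.0 Tris, Mg2+, DTT, Brij-35; phosphate detected by malachite green/molybdate at 650 nm. Normalised to 2% DMSO (0%) and 20 μM EDTA (100%); IC50 from 10 concentrations.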
Sequence of S. pneumoniae Topoisomerase IV ATPase (ParE) (Q59961 whole entry): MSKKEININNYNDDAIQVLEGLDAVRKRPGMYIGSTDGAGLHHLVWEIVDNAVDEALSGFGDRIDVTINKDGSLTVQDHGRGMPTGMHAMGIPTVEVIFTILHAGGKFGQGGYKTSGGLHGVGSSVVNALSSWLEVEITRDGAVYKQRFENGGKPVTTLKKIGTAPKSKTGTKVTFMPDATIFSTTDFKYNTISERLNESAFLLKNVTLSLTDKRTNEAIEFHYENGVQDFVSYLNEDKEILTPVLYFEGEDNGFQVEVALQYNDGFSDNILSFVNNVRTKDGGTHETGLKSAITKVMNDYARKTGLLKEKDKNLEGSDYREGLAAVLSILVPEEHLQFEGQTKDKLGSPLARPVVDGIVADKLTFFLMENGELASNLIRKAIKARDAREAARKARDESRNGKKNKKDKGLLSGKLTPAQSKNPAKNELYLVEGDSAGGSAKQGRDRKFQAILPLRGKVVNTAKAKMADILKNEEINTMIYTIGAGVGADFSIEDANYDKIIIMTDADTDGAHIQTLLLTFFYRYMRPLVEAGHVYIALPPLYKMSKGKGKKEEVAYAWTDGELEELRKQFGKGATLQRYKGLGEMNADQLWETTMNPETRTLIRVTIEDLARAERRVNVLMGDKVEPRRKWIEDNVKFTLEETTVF
Turning to `CCOC(=O)c1cncc(-c2cnc(Nc3ccc(F)c(Cl)c3)nc2NCCNC(C)=O)c1` [Example 94, 5-[4-(2-Acetylamino-ethylamino)-2-(3-chloro-4-fluoro-phenylamino)-pyrimidin-5-yl]-nicotinic acid ethyl ester], the inhibition at 13 µM worked out at 77.5%.

As for `CCOC(=O)c1cncc(-c2cnc(Nc3ccc(F)c(Cl)c3)nc2NCc2ccccn2)c1` [Example 95, 5-{2-(3-Chloro-4-fluoro-phenylamino)-4-[(pyridin-2-ylmethyl)-amino]-pyrimidin-5-yl}-nicotinic acid ethyl ester], the inhibition at 13 µM is -0.48%.

Consider `CCOC(=O)c1cncc(-c2cnc(Nc3ccc(F)c(Cl)c3)nc2NCc2cccnc2)c1` [Example 96, 5-{2-(3-Chloro-4-fluoro-phenylamino)-4-[(pyridin-3-ylmethyl)-amino]-pyrimidin-5-yl}-nicotinic acid ethyl ester], for which the inhibition at 13 µM amounted to 62.2%.

Consider `CCOC(=O)c1cncc(-c2cnc(Nc3ccc(F)c(Cl)c3)nc2NCc2ccncc2)c1` [Example 97, 5-{2-(3-Chloro-4-fluoro-phenylamino)-4-[(pyridin-4-ylmethyl)-amino]-pyrimidin-5-yl}-nicotinic acid ethyl ester], for which the inhibition at 13 µM was 75.9%.

On to `CCOC(=O)c1cncc(-c2cnc(Nc3ccc(F)c(Cl)c3)nc2NCCNC(=O)OC(C)(C)C)c1` [Example 98, 5-[4-(2-tert-Butoxycarbonylamino-ethylamino)-2-(3-chloro-4-fluoro-phenylamino)-pyrimidin-5-yl]-nicotinic acid ethyl ester], for which the inhibition at 13 µM stood at 59.4%.

Turning to `CCOC(=O)c1cncc(-c2cnc(Nc3ccc(F)c(Cl)c3)nc2NCCC(N)=O)c1` [Example 99, 5-[4-(2-Carbamoyl-ethylamino)-2-(3-chloro-4-fluoro-phenylamino)-pyrimidin-5-yl]-nicotinic acid ethyl ester], the inhibition at 13 µM is 82%.

On to `CCOC(=O)c1cncc(-c2cnc(Nc3ccc(F)c(Cl)c3)nc2NCCN2CCOCC2)c1` [Example 100, 5-[2-(3-Chloro-4-fluoro-phenylamino)-4-(2-morpholin-4-yl-ethylamino)-pyrimidin-5-yl]-nicotinic acid ethyl ester], for which the inhibition at 13 µM is 74.2%.

Turning to `CCOC(=O)c1cncc(-c2cnc(Nc3ccc(F)c(Cl)c3)nc2NCCc2ccccn2)c1` [Example 101, 5-[2-(3-Chloro-4-fluoro-phenylamino)-4-(2-pyridin-2-yl-ethylamino)-pyrimidin-5-yl]-nicotinic acid ethyl ester], the inhibition at 13 µM amounted to 8.69%.

Turning to `CCOC(=O)c1cncc(-c2cnc(Nc3ccc(F)c(Cl)c3)nc2NCCc2cccnc2)c1` [Example 102, 5-[2-(3-Chloro-4-fluoro-phenylamino)-4-(2-pyridin-3-yl-ethylamino)-pyrimidin-5-yl]-nicotinic acid ethyl ester], the inhibition at 13 µM was 73.5%.

Regarding `CCOC(=O)c1cncc(-c2cnc(Nc3ccc(F)c(Cl)c3)nc2NCCc2ccncc2)c1` [Example 103, 5-[2-(3-Chloro-4-fluoro-phenylamino)-4-(2-pyridin-4-yl-ethylamino)-pyrimidin-5-yl]-nicotinic acid ethyl ester], the inhibition at 13 µM is 79.5%.

On to `CCOC(=O)c1cncc(-c2cnc(Nc3ccc(F)c(Cl)c3)nc2NCCN2CCS(=O)(=O)CC2)c1` [Example 104, 5-{2-(3-Chloro-4-fluoro-phenylamino)-4-[2-(1,1-dioxo-1λ^6-thiomorpholin-4-yl)-ethylamino]-pyrimidin-5-yl}-nicotinic acid ethyl ester], for which the inhibition at 13 µM was 76.2%.

Consider `CCOC(=O)c1cncc(-c2cnc(Nc3ccc(F)c(Cl)c3)nc2NCCCN2CCS(=O)(=O)CC2)c1` [Example 105, 5-{2-(3-Chloro-4-fluoro-phenylamino)-4-[3-(1,1-dioxo-1λ^6-thiomorpholin-4-yl)-propylamino]-pyrimidin-5-yl}-nicotinic acid ethyl ester], for which the inhibition at 13 µM turned out to be 79.2%.

Turning to `CCOC(=O)c1cncc(-c2cnc(Nc3ccc(F)c(Cl)c3)nc2NCCCN2CCOCC2)c1` [Example 106, 5-[2-(3-Chloro-4-fluoro-phenylamino)-4-(3-morpholin-4-yl-propylamino)-pyrimidin-5-yl]-nicotinic acid ethyl ester], the inhibition at 13 µM was determined as 40.8%.

Regarding `CCOC(=O)c1cncc(-c2cnc(Nc3ccc(F)c(Cl)c3)nc2NCC2CCCO2)c1` (stereo not shown) [Example 108, ethyl 5-[2-[(3-chloro-4-fluorophenyl)amino]-4-(oxolan-2-ylmethylamino)pyrimidin-5-yl]pyridine-3-carboxylate], the inhibition at 13 µM was -18.1%.

Consider `CCOC(=O)c1cncc(-c2cnc(Nc3ccc(F)c(Cl)c3)nc2NCCOC(C)C)c1` [Example 109, ethyl 5-[2-[(3-chloro-4-fluorophenyl)amino]-4-(2-propan-2-yloxyethylamino)pyrimidin-5-yl]pyridine-3-carboxylate], for which the inhibition at 13 µM worked out at 52.4%.

Consider `CCOC(=O)c1cncc(-c2cnc(Nc3ccc(F)c(Cl)c3)nc2NCc2ccco2)c1` [Example 110, ethyl 5-[2-[(3-chloro-4-fluorophenyl)amino]-4-(furan-2-ylmethylamino)pyrimidin-5-yl]pyridine-3-carboxylate], for which the inhibition at 13 µM came to 27.6%.

On to `CCOC(=O)CNc1nc(Nc2ccc(F)c(Cl)c2)ncc1-c1cncc(C(=O)OCC)c1` [Example 111, ethyl 5-[2-[(3-chloro-4-fluorophenyl)amino]-4-[(2-ethoxy-2-oxoethyl)amino]pyrimidin-5-yl]pyridine-3-carboxylate], for which the inhibition at 13 µM was -13.9%.

For `CCOC(=O)c1cncc(-c2cnc(Nc3ccc(F)c(Cl)c3)nc2NCCOc2ccccc2)c1` [Example 112], the inhibition at 13 µM worked out at 0.15%.

As to `CCOC(=O)c1cncc(-c2cnc(Nc3ccc(F)c(Cl)c3)nc2N[C@H](C)C(=O)OC)c1` [Example 113, ethyl 5-[2-[(3-chloro-4-fluorophenyl)amino]-4-[[(2R)-1-methoxy-1-oxopropan-2-yl]amino]pyrimidin-5-yl]pyridine-3-carboxylate], the inhibition at 13 µM was found to be 34.3%.

Turning to `CCOC(=O)c1cncc(-c2cnc(Nc3ccc(F)c(Cl)c3)nc2NCc2cnc(C)cn2)c1` [Example 115, ethyl 5-[2-[(3-chloro-4-fluorophenyl)amino]-4-[(5-methylpyrazin-2-yl)methylamino]pyrimidin-5-yl]pyridine-3-carboxylate], the inhibition at 13 µM came to 28.8%.

In the case of `CCOC(=O)c1cncc(-c2cnc(Nc3ccc(F)c(Cl)c3)nc2NC(C)C)c1` [Example 116, ethyl 5-[2-[(3-chloro-4-fluorophenyl)amino]-4-(propan-2-ylamino)pyrimidin-5-yl]pyridine-3-carboxylate], the inhibition at 13 µM came out at 82%.

`CCOC(=O)c1cncc(-c2cnc(Nc3ccc(F)c(Cl)c3)nc2N2CCC(O)CC2)c1` [Example 117, ethyl 5-[2-[(3-chloro-4-fluorophenyl)amino]-4-(4-hydroxypiperidin-1-yl)pyrimidin-5-yl]pyridine-3-carboxylate]: the inhibition at 13 µM worked out at 73.4%.

As for `CCOC(=O)c1cncc(-c2cnc(Nc3ccc(F)c(Cl)c3)nc2N2CCCC(CO)C2)c1` (stereo not shown) [Example 118, ethyl 5-[2-[(3-chloro-4-fluorophenyl)amino]-4-[3-(hydroxymethyl)piper-idin-1-yl]pyrimidin-5-yl]pyridine-3-carboxylate], the inhibition at 13 µM is 80.6%.

For `CCOC(=O)c1cncc(-c2cnc(Nc3ccc(F)c(Cl)c3)nc2N2CCC(N3CCOCC3)CC2)c1` [Example 119, ethyl 5-[2-[(3-chloro-4-fluorophenyl)amino]-4-(4-morpholin-4-ylpiperidin-1-yl)pyrimidin-5-yl]pyridine-3-carboxylate], the inhibition at 13 µM came out at 32%.

For the compound `CCOC(=O)c1cncc(-c2cnc(Nc3ccc(F)c(Cl)c3)nc2N2CCC(C(=O)NC)CC2)c1` [Example 120, ethyl 5-[2-[(3-chloro-4-fluorophenyl)amino]-4-[4-(methylcarbamoyl)piper-idin-1-yl]pyrimidin-5-yl]pyridine-3-carboxylate], the inhibition at 13 µM was determined as 73.9%.

With `CCOC(=O)c1cncc(-c2cnc(Nc3ccc(F)c(Cl)c3)nc2N2CCC(F)CC2)c1` [Example 121, ethyl 5-[2-[(3-chloro-4-fluorophenyl)amino]-4-(4-fluoropiperidin-1-yl)pyrimidin-5-yl]pyridine-3-carboxylate], the inhibition at 13 µM was determined as 49.6%.

Consider `CCOC(=O)c1cncc(-c2cnc(Nc3ccc(F)c(Cl)c3)nc2N2CCC(OC)CC2)c1` [Example 122, ethyl 5-[2-[3-chloro-4-fluorophenyl)amino]-4-(4-methoxypiperidin-1-yl)pyrimidin-5-yl]pyridine-3-carboxylate], for which the inhibition at 13 µM was found to be 57.9%.

`CCOC(=O)c1cncc(-c2cnc(Nc3ccc(F)c(Cl)c3)nc2N2CCC(O)C2)c1` (stereo not shown) [Example 123, ethyl 5-[2-[(3-chloro-4-fluorophenyl)amino]-4-(3-hydroxypyrrolidin-1-yl)pyrimidin-5-yl]pyridine-3-carboxylate]: the inhibition at 13 µM worked out at 66.4%.

Turning to `CCOC(=O)c1cncc(-c2cnc(Nc3ccc(F)c(Cl)c3)nc2N2CCCC2C)c1` (stereo not shown) [Example 124, ethyl 5-[2-[(3-chloro-4-fluorophenyl)amino]-4-(2-methylpyrrolidin-1-yl)pyrimidin-5-yl]pyridine-3-carboxylate], the inhibition at 13 µM was 31.3%.

Consider `CCOC(=O)c1cncc(-c2cnc(Nc3ccc(F)c(Cl)c3)nc2N2C(C)CCC2C)c1` (stereo not shown) [Example 125, ethyl 5-[2-[(3-chloro-4-fluorophenyl)amino]-4-(2,5-dimethylpyrrolidin-1-yl)pyrimidin-5-yl]pyridine-3-carboxylate], for which the inhibition at 13 µM was 17.5%.

Regarding `CCOC(=O)c1cncc(-c2cnc(Nc3ccc(F)c(Cl)c3)nc2N2CCC2)c1` [Example 126, ethyl 5-[4-(azetidin-1-yl)-2-[(3-chloro-4-fluorophenyl)amino]pyrimidin-5-yl]pyridine-3-carboxylate], the inhibition at 13 µM amounted to 35.7%.

(Values after patent US20100137313A1 (ASTRAZENECA AB, priority 2008, published 2010).)
